Here are results for 1 compound from publication PMC12524402, “Cobalt(II) Complexes of 4′-Bromo-Fenamic Acid: Antioxidant Properties, Antibacterial Activity, and Interaction with DNA and Albumins” (International Journal of Molecular Sciences, 2025).

The target in assay [1] is T1, HSA (human serum albumin) (Homo sapiens, UniProt P02768).
T1 construct: gene ALB; commercial serum albumin (Sigma-Aldrich), mature secreted protein, catalogue number not given
Put plainly: tryptophan fluorescence quenching (excitation […] nm), Scatchard plot. It counts as binding. To be noted: read-out: K(HSA) (converted).

Assay [2] addresses T2, BSA (bovine serum albumin) (Bos taurus, UniProt P02769).
T2 construct: gene ALB; commercial native serum albumin (Sigma-Aldrich), mature secreted protein, catalogue number not given
The assay is described as above. The format is binding. To be noted: read-out: K(BSA) (converted).

T1 sequence (P02768 25-609): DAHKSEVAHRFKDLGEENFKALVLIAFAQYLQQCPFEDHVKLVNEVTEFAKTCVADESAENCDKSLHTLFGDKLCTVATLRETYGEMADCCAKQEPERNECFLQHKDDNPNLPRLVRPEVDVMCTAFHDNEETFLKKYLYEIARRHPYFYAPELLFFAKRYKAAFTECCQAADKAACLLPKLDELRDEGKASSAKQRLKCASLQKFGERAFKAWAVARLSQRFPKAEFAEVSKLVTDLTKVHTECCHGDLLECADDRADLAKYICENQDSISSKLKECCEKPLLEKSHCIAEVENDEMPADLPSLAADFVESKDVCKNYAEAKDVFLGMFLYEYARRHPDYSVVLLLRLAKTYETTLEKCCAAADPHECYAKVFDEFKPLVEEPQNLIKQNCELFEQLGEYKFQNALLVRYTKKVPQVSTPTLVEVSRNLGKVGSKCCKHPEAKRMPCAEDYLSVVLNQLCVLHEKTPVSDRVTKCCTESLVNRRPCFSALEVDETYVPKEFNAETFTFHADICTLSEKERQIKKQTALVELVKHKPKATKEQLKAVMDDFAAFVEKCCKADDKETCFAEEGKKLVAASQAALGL
T2 sequence (P02769 25-607): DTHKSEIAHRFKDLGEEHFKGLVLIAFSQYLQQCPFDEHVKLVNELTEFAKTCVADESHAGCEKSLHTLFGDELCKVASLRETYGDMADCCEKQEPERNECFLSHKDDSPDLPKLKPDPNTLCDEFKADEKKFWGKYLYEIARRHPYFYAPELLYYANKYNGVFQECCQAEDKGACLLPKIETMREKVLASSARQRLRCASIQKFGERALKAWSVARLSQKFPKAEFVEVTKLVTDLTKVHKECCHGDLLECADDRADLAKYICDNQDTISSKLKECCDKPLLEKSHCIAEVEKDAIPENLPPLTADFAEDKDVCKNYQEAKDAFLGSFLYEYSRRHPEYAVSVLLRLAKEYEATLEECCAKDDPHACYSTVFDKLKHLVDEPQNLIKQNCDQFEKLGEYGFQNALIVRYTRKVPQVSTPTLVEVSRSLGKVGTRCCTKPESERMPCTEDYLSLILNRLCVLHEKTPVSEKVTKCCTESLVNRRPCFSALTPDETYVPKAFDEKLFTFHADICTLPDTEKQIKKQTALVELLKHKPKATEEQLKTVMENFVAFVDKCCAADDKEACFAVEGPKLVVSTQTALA

Consider `O=C(O)c1ccccc1Nc1ccc(Br)cc1` [4′-Br-fenH], for which the Kd is 3.7 µM in assay [1] and 3.68 µM in assay [2].
